Measured values published in US9708259B2 (Hoffmann-La Roche Inc., priority 2013, dated 2017).
Where a chain is given by its changes, count along the chain named. pEC50: −log10 of the molar value. Read-outs that look alike come from different tables or passages of the source.

Experiments:
human M1 = molecular target: T1, human M1 (Homo sapiens, UniProt P11229); assay: M1 PAM assay (FLIPR intracellular calcium), human M1; type: cell-based
T1 construct: expressed in transfected cells; host or cells: CHO cells
T1 sequence (P11229 1-460): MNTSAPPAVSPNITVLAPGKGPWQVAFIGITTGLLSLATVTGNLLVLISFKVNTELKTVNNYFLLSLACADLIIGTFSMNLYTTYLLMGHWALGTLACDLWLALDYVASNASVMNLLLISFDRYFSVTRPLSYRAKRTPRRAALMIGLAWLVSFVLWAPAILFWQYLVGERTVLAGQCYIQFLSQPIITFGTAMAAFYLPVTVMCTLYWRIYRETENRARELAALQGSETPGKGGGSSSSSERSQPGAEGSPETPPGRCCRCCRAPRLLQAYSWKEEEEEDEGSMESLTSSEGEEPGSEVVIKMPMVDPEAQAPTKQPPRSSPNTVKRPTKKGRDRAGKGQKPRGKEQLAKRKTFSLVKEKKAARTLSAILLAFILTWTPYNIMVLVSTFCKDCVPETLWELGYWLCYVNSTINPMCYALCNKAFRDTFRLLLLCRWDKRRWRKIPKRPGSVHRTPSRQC
In short: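 CHO cells expressing M1, Fluo-4AM-loaded, in HEPES/probenecid HBSS pH 7.4, 1% DMSO final. Compounds pre-incubated 2 min for agonist activity versus 30 nM acetylcholine control. For PAM activity, acetylcholine EC20 added after the 2 min pre-incubation, then 2 min more before FLIPR intracellular Ca2+ read.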

ratM1 = molecular target: T2, ratM1 (Rattus norvegicus, UniProt P08482); assay: M1 PAM assay (FLIPR intracellular calcium), rat M1; type: cell-based
T2 construct: expressed in transfected cells; host or cells: CHO cells (stated generally for the assay, not specifically for rat M1)
T2 sequence (P08482 1-460): T1 sequence (P11229 1-460) with A5V, T254S, P309S, R320K, A337G, I413V

[1] = CHO human M1 cells, FLIPR Ca2+, with EC20 of acetylcholine, first value of the cell, read-out: hM1 EC50
[2] = rat M1, FLIPR Ca2+, second value of the cell, read-out: ratM1 EC50

| SMILES | pEC50 (human M1; [1]) | pEC50 (ratM1; [2]) | pEC50 (human M1) | pEC50 (ratM1) |
| --- | --- | --- | --- | --- |
| Cn1cc(-c2ccc(Cn3cc(C(=O)NC4CCOCC4)c4c(F)cccc43)cc2)cn1 [Example 65, Fluoro-1-(4-(1-methyl-1H-pyrazol-4-yl)benzyl)-N-(tetrahydro-2H-pyran-4-yl)-1H-indole-3-carboxamide] | 7.49 | 7.22 |  |  |
| Cn1cc(-c2ccc(Cn3nc(C(=O)N[C@H]4CCCC[C@@H]4O)c4c(F)cccc43)c(F)c2)cn1 [Example 3, 4-fluoro-1-(2-fluoro-4-(1-methyl-1H-pyrazol-4-yl)benzyl)-N-((1S,2S)-2-hydroxycyclohexyl)-1H-indazole-3-carboxamide] | 7.60 | 7.04 |  |  |
| Cn1cc(-c2ccc(Cn3cc(C(=O)N[C@H]4CCOC[C@@H]4O)c4c(F)ccc(C5CC5)c43)c(F)c2)cn1 [Example 107, 7-cyclopropyl-4-fluoro-1-(2-fluoro-4-(1-methyl-1H-pyrazol-4-yl)benzyl)-N-((3R,4S)-3-hydroxytetrahydro-2H-pyran-4-yl)-1H-indole-3-carboxamide] | 6.32 | 6.12 |  |  |
| O=C(N[C@H]1CCOC[C@@H]1O)c1cn(Cc2ccc(-c3nccs3)cc2)c2cccc(F)c12 [Example 79, 4-fluoro-N-((3R,4S)-3-hydroxytetrahydro-2H-pyran-4-yl)-1-(4-(thiazol-2-yl)benzyl)-1H-indole-3-carboxamide] | 7.77 | 7.59 |  |  |
| O=C(N[C@H]1CCCC[C@@H]1O)c1cn(Cc2ccc(-c3cncnc3)cc2)c2cccc(F)c12 [Example 158, 4-Fluoro-N-((1S,2S)-2-hydroxycyclohexyl)-1-(4-(pyrimidin-5-yl)benzyl)-1H-indole-3-carboxamide] | 7.64 | 7.21 |  |  |
| Cn1cc(-c2ccc(Cn3cc(C(=O)N[C@H]4CCCC[C@@H]4O)c4c(F)c(F)c(F)c(F)c43)cn2)cn1 [Example 27, 4,5,6,7-tetrafluoro-N-((1S,2S)-2-hydroxycyclohexyl)-1-((6-(1-methyl-1H-pyrazol-4-yl)pyridine-3-yl)methyl)-1H-indole-3-carboxamide] | 7.25 | 7.09 |  |  |
| Cn1cc(-c2ccc(Cn3cc(C(=O)N[C@H]4CCC[C@H]4O)c4c(F)cccc43)c(F)c2)cn1 [Example 24, 4-fluoro-1-(2-fluoro-4-(1-methyl-1H-pyrazol-4-yl)benzyl)-N-((1S,2R)-2-hydroxycyclopentyl)-1H-indole-3-carboxamide] | 7.33 | 7.07 |  |  |
| Cn1cc(-c2ccc(Cn3nc(C(=O)N[C@H]4CCOC[C@@H]4O)c4c(F)ccc(F)c43)c(F)c2)cn1 [Example 73, 4,7-difluoro-1-(2-fluoro-4-(1-methyl-1H-pyrazol-4-yl)benzyl)-N-((3R,4S)-3-hydroxytetrahydro-2H-pyran-4-yl)-1H-indazole-3-carboxamide] | 7.18 | 7.03 |  |  |
| Cn1ncc2cc(Cn3cc(C(=O)NC4CCOCC4)c4c(F)ccc(F)c43)ccc21 [Example 94, 4,7-difluoro-1-((1-methyl-1H-indazol-5-yl)methyl)-N-(tetrahydro-2H-pyran-4-yl)-1H-indole-3-carboxamide] |  |  | 7.18 | 6.85 |
| O=C(N[C@H]1CCCC[C@@H]1O)c1cn(Cc2ccc(-c3ncccn3)cc2)c2cccc(F)c12 [Example 135, 4-fluoro-N-((1S,2S)-2-hydroxycyclohexyl)-1-(4-(pyrimidin-2-yl)benzyl)-1H-indole-3-carboxamide] | 7.01 | 6.42 |  |  |
| Cn1cc(-c2ccc(Cn3cc(C(=O)NCC4(O)CC4)c4c(F)cccc43)c(F)c2)cn1 [Example 97, 4-fluoro-1-(2-fluoro-4-(1-methyl-1H-pyrazol-4-yl)benzyl)-N-((1-hydroxycyclopropyl)methyl)-1H-indole-3-carboxamide] | 6.33 | 5.72 |  |  |
| COc1ccc(F)c2c(C(=O)N[C@H]3CCCC[C@@H]3O)cn(Cc3ccc(-c4cnn(C)c4)cc3F)c12 [Example 149, 4-fluoro-1-(2-fluoro-4-(1-methyl-1H-pyrazol-4-yl)benzyl)-N-((1S,2S)-2-hydroxycyclohexyl)-7-methoxy-1H-indole-3-carboxamide] | 6.36 | 6.46 |  |  |
| O=C(N[C@H]1CCCC[C@@H]1O)c1cn(Cc2ccc(F)cc2)c2cccc(F)c12 [Example 42, 4-fluoro-1-(4-fluorobenzyl)-N-((1S,2S)-2-hydroxycyclohexyl)-1H-indole-3-carboxamide] |  |  | 6.96 | 6.70 |
| CNC(=O)c1ccc(Cn2cc(C(=O)N[C@H]3CCCC[C@@H]3O)c3c(F)cccc32)cn1 [Example 87, 4-fluoro-N-((1S,2S)-2-hydroxycyclohexyl)-1-((6-(methylcarbamoyl)pyridin-3-yl)methyl)-1H-indole-3-carboxamide] | 7.13 | 6.92 |  |  |
| CNC(=O)c1ccc(Cn2cc(C(=O)NC3CCCCCC3)c3c(F)cccc32)cc1 [Example 115, N-cycloheptyl-4-fluoro-1-[[4-(methylcarbamoyl)phenyl]methy]indole-3-carboxamide] | 7.30 | 7.55 |  |  |
| Cn1cc(-c2ccc(Cn3nc(C(=O)N[C@H]4CCOC[C@@H]4O)c4c(F)cccc43)c(F)c2)cn1 (racemic) [Example 7, 4-fluoro-1-(2-fluoro-4-(1-methyl-1H-pyrazol-4-yl)benzyl)-N-((3RS,4SR)-3-hydroxytetrahydro-2H-pyran-4-yl)-1H-indazole-3-carboxamide] | 7.15 | 6.83 |  |  |
| Cn1cc(-c2ccc(Cn3cc(C(=O)N[C@H]4CCCC[C@@H]4O)c4c(F)cc(F)cc43)c(F)c2)cn1 [Example 5, 4,6-difluoro-1-(2-fluoro-4-(1-methyl-1H-pyrazol-4-yl)benzyl)-N-((1S,2S)-2-hydroxycyclohexyl)-1H-indole-3-carboxamide] | 7.08 | 6.64 |  |  |
| CCc1ccc(F)c2c(C(=O)NC3CCOCC3)cn(Cc3ccc(-c4cnn(C)c4)cc3)c12 [Example 108, 7-ethyl-4-fluoro-1-(4-(1-methyl-1H-pyrazol-4-yl)benzyl)-N-(tetrahydro-2H-pyran-4-yl)-1H-indole-3-carboxamide] | 6.38 | 6.02 |  |  |
| Cn1cc(-c2ccc(Cn3cc(C(=O)N[C@H]4CCCC(F)(F)[C@@H]4O)c4c(F)cccc43)cc2)cn1 [Example 101, N-((1S,2R)-3,3-difluoro-2-hydroxycyclohexyl)-4-fluoro-1-(4-(1-methyl-1H-pyrazol-4-yl)benzyl)-1H-indole-3-carboxamide] | 7.85 | 7.38 |  |  |
| Cn1cc(-c2ccc(Cn3cc(C(=O)N[C@H]4CCCC[C@@H]4O)c4c(F)ccc(C5CC5)c43)cc2)cn1 [Example 105, 7-cyclopropyl-4-fluoro-N-((1S,2S)-2-hydroxycyclohexyl)-1-(4-(1-methyl-1H-pyrazol-4-yl)benzyl)-1H-indole-3-carboxamide] | 6.54 | 6.20 |  |  |
| COc1ccc(F)c2c(C(=O)N[C@H]3CCOC[C@@H]3O)cn(Cc3ccc(-c4cnn(C)c4)cc3)c12 [Example 150, 4-fluoro-N-((3R,4S)-3-hydroxytetrahydro-2H-pyran-4-yl)-7-methoxy-1-(4-(1-methyl-1H-pyrazol-4-yl)benzyl)-1H-indole-3-carboxamide] | 7.30 | 7.47 |  |  |
| N#Cc1ccc(Cn2cc(C(=O)N[C@H]3CCCC[C@@H]3O)c3c(F)cccc32)cc1 [Example 32, 1-(4-cyanobenzyl)-4-fluoro-N-((1S,2S)-2-hydroxycyclohexyl)-1H-indole-3-carboxamide] |  |  | 6.98 | 6.65 |
